Data taken from ChEMBL document CHEMBL5528039, “Discovery of a Macrocyclic Influenza Cap-Dependent Endonuclease Inhibitor” (J Med Chem, 2024).

Key:
[1] = tested on: Influenza A virus; assay: Antiviral activity against Influenza A virus A/PR/8/34 PA-I38T infected in MDCK cells assessed as reduction in virus-induced cytopathic effect incubated for 5 days by CCK8 based microplate spectrophotometric analysis; assay type: functional, organism-based; settings: for EC50: mdck; for EC90: time 5 day
[2] = tested on: Influenza A virus; assay: Selectivity ratio of EC50 for antiviral activity against Influenza A virus A/PR/8/34 PA-I38T infected in MDCK cells to EC50 for antiviral activity against Influenza A virus A/PR/8/34 (H1N1) infected in MDCK cells; assay type: functional
[3] = tested on: Influenza A virus; assay: Antiviral activity against baloxavir-resistant Influenza A virus A/PR/8/34 infected in MDCK cells assessed as reduction in virus-induced cytopathic effect incubated for 5 days by CCK8 based microplate spectrophotometric analysis; assay type: functional, organism-based; settings: for EC50: mdck; for EC90: time 5 day
[4] = tested on: Influenza A virus; assay: Selectivity ratio of EC50 for antiviral activity against baloxavir-resistant Influenza A virus A/PR/8/34 infected in MDCK cells to EC50 for antiviral activity against Influenza A virus A/PR/8/34 (H1N1) infected in MDCK cells; assay type: functional

With CN1C(=O)c2c(O)c(=O)ccn2N2[C@H](c3ccccc3F)c3cc(F)c(F)cc3OCC[C@@H]12 the EC50 [1] was 79 nM, the EC90 [1] was 123 nM and the “Ratio EC50” value [2] was 7.2.

In the case of O=C1c2c(O)c(=O)ccn2N([C@@H]2c3ccccc3SCc3c2ccc(F)c3F)[C@@H]2COCCN12 [BALOXAVIR], the EC50 [1] is reported as 142 nM, the EC90 [1] is reported as 232 nM and the “Ratio EC50” value [2] is reported as 68. For the same molecule, the EC50 [3] was 142 nM, the EC90 [3] was 232 nM and the “Ratio EC50” value [4] was 68.

In the case of CN1C(=O)c2c(O)c(=O)ccn2N2[C@H](c3ccc(F)c(F)c3)c3cc(F)c(F)cc3OCC[C@@H]12, the EC50 [1] is reported as 211 nM, the EC90 [1] is reported as 393 nM and the “Ratio EC50” value [2] is reported as 8.4.

For CN1C(=O)c2c(O)c(=O)ccn2N2[C@H](c3ccc(F)cc3)c3cc(F)c(F)cc3OCC[C@@H]12, the EC50 [1] was 193 nM, the EC90 [1] was 370 nM and the “Ratio EC50” value [2] was 14.

For CN1C(=O)c2c(O)c(=O)ccn2N2[C@H](c3ccccc3Br)c3cc(F)c(F)cc3OCC[C@@H]12 (racemic), the EC50 [1] was 166 nM, the EC90 [1] was 344 nM and the “Ratio EC50” value [2] was 15.

With CN1C(=O)c2c(O)c(=O)ccn2N2[C@H](c3ccccc3)c3cc(F)c(F)cc3OCC[C@@H]12 the EC50 [1] was 66 nM, the EC90 [1] was 113 nM and the “Ratio EC50” value [2] was 9.2. For the same molecule, the EC50 [3] was 66 nM, the EC90 [3] was 113 nM and the “Ratio EC50” value [4] was 9.2.

With CN1C(=O)c2c(O)c(=O)ccn2N2[C@H](c3ccccc3)c3ccc(F)c(F)c3OCC[C@@H]12 (racemic) the EC50 [1] was 512 nM, the EC90 [1] was 795 nM and the “Ratio EC50” value [2] was 10.

With CC(C)N1C(=O)c2c(O)c(=O)ccn2N2[C@H](c3ccccc3)c3ccccc3OCC[C@@H]12 (racemic) the EC50 [1] was 435 nM, the EC90 [1] was 675 nM and the “Ratio EC50” value [2] was 8.2.

For CN1C(=O)c2c(O)c(=O)ccn2N2[C@H](c3ccccc3)c3ccccc3OCC[C@@H]12, the EC50 [1] was 214 nM, the EC90 [1] was 336 nM and the “Ratio EC50” value [2] was 15.
